From patent publication US20090253629A1 (priority 2008, published 2009)
≈ marks a conversion by molar mass, not a printed value. Where “and” joins values, the source holds several entries; their conditions need not be identical. Equal entries are not always repeated. Where two headings read alike, the source gives them in different places.

Columns and labels:
[1] = system: Streptococcus pneumoniae (1395); assay: Minimum inhibitory concentration (MIC) against Streptococcus pneumoniae (1395); format: cell-based; details: penicillin-resistant serotype 9V, read-out: minimium inhibitory concentration (MIC)
From the text: (§1) An Isolate of a penicillin-resistant serotype 9V Streptococcus pneumoniae (1395), originally isolated from the CSF of a person with meningitis, was used in the meningitis model. This strain was formerly used for evaluating the effectiveness of treatment of meningitis with Moxifloxacin (see Ostergaard et al., 1998, “Evaluation of moxifloxacin, a new 8-methoxyquinolone, for treatment of meningitis caused by a penicillin-resistant pneumococcus in rabbits”, Antimicrob Agents Chemother 42(7): 1706-1712).
The synthetic defensin used in the experiment is a polypeptide having the amino acid sequence shown in SEQ ID NO: 1.

[2] = system: penicillin-resistant serotype 9V Streptococcus pneumoniae (1395); format: in vivo, New Zealand white rabbits; details: for reduction in bacterial burden in the cerebrospinal fluid (Δ log CFU), Average / reduction in bacterial burden in the cerebrospinal fluid (Δ log CFU): Ceftriaxon treatment; for reduction in bacterial burden in the cerebrospinal fluid (Δ log CFU), Average: average of rabbits 7-10; for reduction in bacterial burden in the cerebrospinal fluid (Δ log CFU): individual rabbits 7-10
From the text: as §1
The virulence of the strain was enhanced by passing the bacteria through a mouse peritonitis model. Bacteria from sampled peritoneal fluid were grown on blood agar plates, recovered and diluted in beef-broth with 10% glycerol added and frozen at −80° C.
The bacterial aliquots were thawn and grown on blood-agar plates, suspended in sterile beef-broth to reach an optical density of 3.5 at 540 nm, and subsequently diluted to obtain a final concentration of 1-2×10^6 CFU/ml.
Male New Zealand white rabbits weighing approx. 2500 g was used for the experiments. The rabbits arrived at the facilities 1-2 weeks prior to the experiment to allow for adaptation. They were kept in single cages covered with hay and offered food and water with no restrictions. Veterinarian expertise was available at the laboratory, and the experimental design was approved by the local animal legislation committee.
The rabbit was weighed and anaesthetized with dormicum 0.5 ml/kg (midazolam 5 mg/ml) s.c. and after 10 minutes with hypnorm 0.35 ml/kg (fentanylcitrat+fluanison) i.m.
The ears, scalp and neck of the rabbit were shaved and the skin disinfected. An incision measuring approx. 2 cm was made on the forehead of the rabbit and the scalp was exposed by blunt dissection. 4 bore holes were made demarcating a square and 4 screws were screwed up at right angles to the surface (2.5 to 3 turns). An acrylic helmet, embedding a turnbuckle, was moulded from dental casting material directly onto the scalp of the rabbit and the helmet was cooled under running water. The rabbit was put back into its cage with free access to food and water to rest for 8-10 hours until the time of bacterial inoculation or start of pharmacokinetic treatment study on uninfected rabbits. Analgesia with buprenorfin, 0.1 mg/kg, was given.
The head of the rabbit was immobilised in a stereotactic frame and a spinal canula was introduced in cisterna magna for the inoculation of 1×10^5 CFU pneumococci. After the bacterial inoculation, the rabbit was put back into its cage with access to food and water for another 8 hours.
The rabbit was re-anaesthetized with urethan 3.5 ml/kg ([…] 50%, 1.75 g/kg) s.c. at 7.30 a.m. A venous catheter was applied in the left ear-vein and Mebumal approx. 0.5-1 ml (Pentobarbital 50 mg/ml) i.v. was infused slowly until the rabbit was asleep and deeply anaesthetized. A three-way tap was connected to the venous catheter and syringes containing pentobarbital for supplemental anaesthetics and isotonic NaCl and heparin 1 Ul/ml for flushing were connected to the tap. Rabbits were observed every half hour. When the need for supplemental anaesthesia arose, additional 0.2 ml Mebumal (Pentobarbital 50 mg/ml) was given. During the experiment observations and anaesthetics were recorded in the scheme of the laboratory animal-department and in the book of the Laboratory Animal Inspection.
An arterial canula was applied in the artery of the right ear and used for blood-sampling throughout the experiment. A bolt was fastened to the turnbuckle embedded in the acrylic helmet, and the rabbit's head was fixed in a stereotactic frame. The rabbit remained fixed throughout the experiment.
Cisterna magna was punctured with a spinal-canula, fastened to the stereotactic frame. The canula was left in place throughout the experiment and used for CSF-sampling.

[3] = time 0 hours (normalized start)

## CO/N=C(\C(=O)N[C@@H]1C(=O)N2C(C(=O)O)=C(CSc3nc(=O)c(=O)[nH]n3C)CS[C@H]12)c1csc(N)n1 [Ceftriaxone]
[1]
  MIC: 0.5 µg/mL (≈ 0.902 µM)
[2]; [3]
  reduction in bacterial burden in the cerebrospinal fluid (Δ log CFU), Average: 0.00 Δ log CFU
  reduction in bacterial burden in the cerebrospinal fluid (Δ log CFU): 0.00 Δ log CFU
[2]; time 0 hours (start of treatment), Ceftriaxone 125 mg/kg at 0 h
  bacterial burden in the cerebrospinal fluid: 3,480,000 CFU/ml
[2]; time 3 hours
  reduction in bacterial burden in the cerebrospinal fluid (Δ log CFU), Average: −2.12 Δ log CFU
  reduction in bacterial burden in the cerebrospinal fluid (Δ log CFU): −2.26 Δ log CFU and −2.11 Δ log CFU and −2.53 Δ log CFU and −1.58 Δ log CFU
[2]; time 3 hours, Ceftriaxone 125 mg/kg at 0 h
  bacterial burden in the cerebrospinal fluid: 92,500 CFU/ml
[2]; time 5 hours
  reduction in bacterial burden in the cerebrospinal fluid (Δ log CFU), Average: −2.98 Δ log CFU
  reduction in bacterial burden in the cerebrospinal fluid (Δ log CFU): −3.28 Δ log CFU and −2.77 Δ log CFU and −3.72 Δ log CFU and −2.14 Δ log CFU
[2]; time 5 hours, Ceftriaxone 125 mg/kg at 0 h
  bacterial burden in the cerebrospinal fluid: 25,000 CFU/ml
[2]; time 10 hours
  reduction in bacterial burden in the cerebrospinal fluid (Δ log CFU), Average: −4.18 Δ log CFU
  reduction in bacterial burden in the cerebrospinal fluid (Δ log CFU): −5.16 Δ log CFU and −3.57 Δ log CFU and −4.32 Δ log CFU and −3.67 Δ log CFU
[2]; time 10 hours, Ceftriaxone 125 mg/kg at 0 h
  bacterial burden in the cerebrospinal fluid: 750 CFU/ml
[2]; time −10 hours (before treatment), Ceftriaxone group
  bacterial burden in the cerebrospinal fluid: 240,000 CFU/ml
